Test results taken from US10670605B2, “Cysteine reactive probes and uses thereof” (The Scripps Research Institute, priority 2015, dated 2020).
Blank lines part the entries; values can stand above or below the compound they belong to.

Legend:
Test in all cases: Competitive isoTOP-ABPP in situ (fragment-treated cells)
Type in all cases: cell-based
[1] = biological target: T1, cysteines in MDA-MB-231 and Ramos cells (Homo sapiens, UniProt P04183)
T1 sequence (P04183 1-234): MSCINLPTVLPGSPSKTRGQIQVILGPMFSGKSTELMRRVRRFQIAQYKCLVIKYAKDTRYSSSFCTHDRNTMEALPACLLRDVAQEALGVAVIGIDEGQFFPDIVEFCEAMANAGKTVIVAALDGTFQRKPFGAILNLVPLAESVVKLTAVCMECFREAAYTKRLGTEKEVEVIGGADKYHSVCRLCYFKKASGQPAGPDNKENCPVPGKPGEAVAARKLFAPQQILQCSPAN

[2] = biological target: T2, cysteines in MDA-MB-231 and Ramos cells (Homo sapiens, UniProt Q9BQ69)
T2 sequence (Q9BQ69 1-325): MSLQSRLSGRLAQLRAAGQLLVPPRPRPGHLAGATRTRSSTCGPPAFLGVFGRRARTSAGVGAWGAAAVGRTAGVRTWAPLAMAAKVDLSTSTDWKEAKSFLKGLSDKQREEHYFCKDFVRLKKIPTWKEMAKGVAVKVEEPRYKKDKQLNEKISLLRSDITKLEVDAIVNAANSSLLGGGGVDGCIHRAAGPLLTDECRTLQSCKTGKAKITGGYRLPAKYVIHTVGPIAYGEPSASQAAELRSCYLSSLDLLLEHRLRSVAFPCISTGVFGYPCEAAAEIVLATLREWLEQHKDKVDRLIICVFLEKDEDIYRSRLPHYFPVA

[3] = biological target: T3, cysteines in MDA-MB-231 and Ramos cells (Homo sapiens, UniProt Q9Y277)
T3 sequence (Q9Y277 1-283): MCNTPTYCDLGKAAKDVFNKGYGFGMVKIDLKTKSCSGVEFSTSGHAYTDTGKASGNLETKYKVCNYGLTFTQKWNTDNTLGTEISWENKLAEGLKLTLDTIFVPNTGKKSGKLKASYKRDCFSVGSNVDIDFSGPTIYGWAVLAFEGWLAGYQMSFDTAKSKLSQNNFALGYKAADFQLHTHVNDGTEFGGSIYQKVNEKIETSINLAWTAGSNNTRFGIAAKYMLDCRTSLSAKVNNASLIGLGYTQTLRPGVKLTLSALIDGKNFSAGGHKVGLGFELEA

[4] = biological target: T4, cysteines in MDA-MB-231 and Ramos cells (Homo sapiens, UniProt Q29RF7)
T4 sequence (Q29RF7 1-1337): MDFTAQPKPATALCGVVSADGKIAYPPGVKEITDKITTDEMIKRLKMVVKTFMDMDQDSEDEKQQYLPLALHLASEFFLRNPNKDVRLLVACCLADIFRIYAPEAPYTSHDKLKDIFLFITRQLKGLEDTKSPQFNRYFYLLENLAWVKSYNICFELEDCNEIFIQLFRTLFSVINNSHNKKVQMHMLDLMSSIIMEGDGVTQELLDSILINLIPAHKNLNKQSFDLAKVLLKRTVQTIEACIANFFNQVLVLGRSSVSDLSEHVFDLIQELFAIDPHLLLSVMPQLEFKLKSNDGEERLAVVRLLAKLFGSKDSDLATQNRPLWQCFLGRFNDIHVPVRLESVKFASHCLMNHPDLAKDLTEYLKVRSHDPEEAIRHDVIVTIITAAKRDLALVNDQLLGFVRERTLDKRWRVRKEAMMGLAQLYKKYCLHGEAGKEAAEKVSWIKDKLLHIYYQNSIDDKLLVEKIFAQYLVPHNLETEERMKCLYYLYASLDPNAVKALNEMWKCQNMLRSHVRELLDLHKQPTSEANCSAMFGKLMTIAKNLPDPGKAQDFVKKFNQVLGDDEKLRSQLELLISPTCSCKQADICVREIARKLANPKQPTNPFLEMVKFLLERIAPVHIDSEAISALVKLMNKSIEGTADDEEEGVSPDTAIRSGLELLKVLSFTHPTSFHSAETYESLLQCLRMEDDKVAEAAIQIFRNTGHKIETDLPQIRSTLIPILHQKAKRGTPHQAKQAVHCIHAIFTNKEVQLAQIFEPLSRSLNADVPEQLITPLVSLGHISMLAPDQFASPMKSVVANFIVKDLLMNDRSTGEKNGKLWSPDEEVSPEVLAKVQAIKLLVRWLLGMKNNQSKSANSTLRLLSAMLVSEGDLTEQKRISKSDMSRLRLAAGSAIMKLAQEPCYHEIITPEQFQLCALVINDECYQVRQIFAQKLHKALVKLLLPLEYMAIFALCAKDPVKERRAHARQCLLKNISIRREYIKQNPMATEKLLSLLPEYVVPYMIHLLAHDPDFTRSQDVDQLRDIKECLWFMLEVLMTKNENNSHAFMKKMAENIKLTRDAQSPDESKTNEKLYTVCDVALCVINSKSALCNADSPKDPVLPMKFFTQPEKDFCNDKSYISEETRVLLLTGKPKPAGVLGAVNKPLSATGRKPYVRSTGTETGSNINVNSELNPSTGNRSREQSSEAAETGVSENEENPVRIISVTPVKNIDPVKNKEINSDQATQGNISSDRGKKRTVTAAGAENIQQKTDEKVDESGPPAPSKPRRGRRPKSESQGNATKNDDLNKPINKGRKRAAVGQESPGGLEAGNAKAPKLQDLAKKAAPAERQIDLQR

Structure (SMILES): O=C(CCl)NC(=O)NC12CC3CC(CC(C3)C1)C2 [compound 12]
- isoTOP-ABPP ratio, cysteine Q29RF7_C242 ([4]; 200 μM, insitu, 231): 12.9
- isoTOP-ABPP ratio Q9BQ69_C186 ([2]; 200 μM, insitu, 231): 2.7
- isoTOP-ABPP ratio Q9Y277_C65 ([3]; 200 μM, insitu, 231): 3.9

Structure (SMILES): O=C(CCl)NC12CC3CC(CC(C3)C1)C2 [compound 21]
- isoTOP-ABPP ratio P04183_C230 ([1]; 200 μM, insitu, 231): 0.7
- isoTOP-ABPP ratio, cysteine Q29RF7_C242 ([4]; 200 μM, insitu, 231): 0.9
- isoTOP-ABPP ratio Q9BQ69_C186 ([2]; 200 μM, insitu, 231): 1.4
- isoTOP-ABPP ratio Q9Y277_C65 ([3]; 200 μM, insitu, 231): 2.9

Structure (SMILES): O=C(CCl)N1CCN(S(=O)(=O)c2ccccc2F)CC1 [compound 10]
- isoTOP-ABPP ratio P04183_C230 ([1]; 200 μM, insitu, 231): 1.3
- isoTOP-ABPP ratio, cysteine Q29RF7_C532 ([4]; 200 μM, insitu, 231): 20.0
- isoTOP-ABPP ratio Q9BQ69_C186 ([2]; 200 μM, insitu, 231): 2.4
- isoTOP-ABPP ratio Q9Y277_C65 ([3]; 200 μM, insitu, 231): 3.3
- isoTOP-ABPP ratio Q9Y277_C65 ([3]; 200 μM, insitu, ramos): 2.5

Structure (SMILES): Cc1ccc(C=C(C#N)C(=O)NCCN2CCOCC2)cc1 [compound 41]
- isoTOP-ABPP ratio P04183_C66 ([1]; 200 μM, insitu, 231): 0.4
- isoTOP-ABPP ratio P04183_C230 ([1]; 200 μM, insitu, 231): 0.6
- isoTOP-ABPP ratio Q29RF7_C532 ([4]; 200 μM, insitu, 231): 0.8
- isoTOP-ABPP ratio Q9BQ69_C186 ([2]; 200 μM, insitu, 231): 1.2
- isoTOP-ABPP ratio Q9Y277_C65 ([3]; 200 μM, insitu, 231): 1.4

Structure (SMILES): Cn1cc(S(=O)(=O)N2CCOCC2)cc1C(=O)NC(=O)CCl [compound 11]
- isoTOP-ABPP ratio, cysteine P04183_C66 ([1]; 100 μM in situ 231): 0.6
- isoTOP-ABPP ratio, cysteine Q29RF7_C242 ([4]; 100 μM in situ 231): 0.9
- isoTOP-ABPP ratio Q9BQ69_C186 ([2]; 100 μM in situ 231): 1.0
- isoTOP-ABPP ratio Q9Y277_C65 ([3]; 100 μM in situ 231): 1.4

Structure (SMILES): C=CC(=O)Nc1cc(F)c(N2CCN(C(=O)OC(C)(C)C)CC2)c(F)c1 [compound 38]
- isoTOP-ABPP ratio P04183_C230 ([1]; 200 μM, insitu, 231): 2.8
- isoTOP-ABPP ratio Q29RF7_C242 ([4]; 200 μM, insitu, 231): 1.0
- isoTOP-ABPP ratio Q9BQ69_C186 ([2]; 200 μM, insitu, 231): 3.6
- isoTOP-ABPP ratio Q9Y277_C65 ([3]; 200 μM, insitu, 231): 20.0

Structure (SMILES): COc1cc2c(cc1OC)CN(C(=O)CCl)CC2 [compound 8]
- isoTOP-ABPP reactivity P04183_C66 TK1 ([1]; 200 μM, insitu, 231): 2.3
- isoTOP-ABPP reactivity Q29RF7_C242 PDS5A ([4]; 200 μM, insitu, 231): 1.0
- isoTOP-ABPP reactivity Q9BQ69_C186 MACROD1 ([2]; 200 μM, insitu, 231): 5.0

Structure (SMILES): O=C(CCl)NCCc1c[nH]c2ccccc12 [compound 13]
- isoTOP-ABPP ratio P04183_C230 ([1]; 200 μM, insitu, 231): 0.7
- isoTOP-ABPP ratio, cysteine P04183_C66 ([1]; 200 μM, insitu, 231): 1.0
- isoTOP-ABPP ratio, cysteine Q29RF7_C532 ([4]; 200 μM, insitu, ramos): 2.0
- isoTOP-ABPP ratio Q9BQ69_C186 ([2]; 200 μM, insitu, 231): 1.4
- isoTOP-ABPP ratio Q9Y277_C65 ([3]; 200 μM, insitu, 231): 1.0

Structure (SMILES): COc1ccc(C2CC(c3cccs3)=NN2C(=O)CCl)cc1 (stereo not drawn) [compound 4]
- isoTOP-ABPP reactivity P04183_C230 TK1 ([1]; 100 μM in situ 231): 0.8
- isoTOP-ABPP reactivity Q29RF7_C242 PDS5A ([4]; 100 μM in situ 231): 3.0
- isoTOP-ABPP reactivity Q29RF7_C532 PDS5A ([4]; 100 μM in situ 231): 20.0
- isoTOP-ABPP reactivity Q9BQ69_C186 MACROD1 ([2]; 100 μM in situ 231): 1.8
- isoTOP-ABPP reactivity Q9Y277_C65 VDAC3 ([3]; 100 μM in situ 231): 4.7

Structure (SMILES): O=C(CCl)N1CCN(CC(=O)N2CCOCC2)CC1 [compound 29]
- isoTOP-ABPP ratio P04183_C66 ([1]; 200 μM, insitu, ramos): 1.6
- isoTOP-ABPP ratio P04183_C230 ([1]; 200 μM, insitu, ramos): 1.2
- isoTOP-ABPP ratio Q9BQ69_C186 ([2]; 200 μM, insitu, ramos): 1.5

Second part, the compound after the results:

- isoTOP-ABPP reactivity P04183_C230 TK1 ([1]; 200 μM, insitu, 231): 1.9
- isoTOP-ABPP reactivity Q9BQ69_C186 MACROD1 ([2]; 200 μM, insitu, 231): 4.8
- isoTOP-ABPP reactivity Q9Y277_C65 VDAC3 ([3]; 200 μM, insitu, 231): 3.3
Structure (SMILES): COc1ccc2c(c1)CCCN2C(=O)CCl [compound 2]

- isoTOP-ABPP ratio Q29RF7_C242 ([4]; 200 μM, insitu, 231): 0.9
- isoTOP-ABPP ratio Q9BQ69_C186 ([2]; 200 μM, insitu, 231): 2.4
- isoTOP-ABPP ratio Q9Y277_C65 ([3]; 200 μM, insitu, 231): 1.6
Structure (SMILES): CC(C)CCOCCNC(=O)CCl [compound 27]

- isoTOP-ABPP ratio Q29RF7_C242 ([4]; 200 μM, insitu, 231): 1.0
- isoTOP-ABPP ratio Q9Y277_C65 ([3]; 200 μM, insitu, 231): 1.2
Structure (SMILES): COc1ccccc1OCCNC(=O)CCl [compound 28]

- isoTOP-ABPP ratio P04183_C230 ([1]; 200 μM, insitu, 231): 2.0
- isoTOP-ABPP ratio Q9BQ69_C186 ([2]; 200 μM, insitu, 231): 3.3
Structure (SMILES): CC1CCc2ccccc2N1C(=O)CCl (stereo not drawn) [compound 45]

- isoTOP-ABPP ratio P04183_C230 ([1]; 200 μM, insitu, 231): 0.7
- isoTOP-ABPP ratio Q29RF7_C242 ([4]; 200 μM, insitu, 231): 1.8
- isoTOP-ABPP ratio Q9BQ69_C186 ([2]; 200 μM, insitu, 231): 1.2
Structure (SMILES): O=C(CCl)Nc1cccc2ncccc12 [compound 51]

- isoTOP-ABPP ratio P04183_C66 ([1]; 200 μM, insitu, 231): 0.7
- isoTOP-ABPP ratio P04183_C230 ([1]; 200 μM, insitu, ramos): 2.1
- isoTOP-ABPP ratio Q29RF7_C532 ([4]; 200 μM, insitu, 231): 5.1
- isoTOP-ABPP ratio Q29RF7_C532 ([4]; 200 μM, insitu, ramos): 8.1
- isoTOP-ABPP ratio Q9BQ69_C186 ([2]; 200 μM, insitu, 231): 0.5
- isoTOP-ABPP ratio Q9Y277_C65 ([3]; 200 μM, insitu, ramos): 1.0
Structure (SMILES): C=CC(=O)N(Cc1cccnc1)c1cc(C(F)(F)F)cc(C(F)(F)F)c1 [compound 31]

- isoTOP-ABPP reactivity P04183_C66 TK1 ([1]; 200 μM, insitu, 231): 7.0
- isoTOP-ABPP reactivity P04183_C230 TK1 ([1]; 200 μM, insitu, 231): 10.0
- isoTOP-ABPP reactivity Q9BQ69_C186 MACROD1 ([2]; 200 μM, insitu, 231): 1.2
Structure (SMILES): O=C(CCl)N1CCC(Cc2ccccc2)CC1 [compound 9]
